From paper PMC4696656, “Insights into the Mechanism of Action of Bactericidal Lipophosphonoxins” (PLoS ONE, 2015)
Values after ≈ are worked out from the molar mass of the structure shown.

Columns and labels:
[1] = test system: Bacteroides fragilis CCM 4712; assay: MIC against anaerobic bacteria, tube dilution method; format: cell-based; conditions: CCM4712, anaerobic conditions, 35°C, 48 h (confirmed 72 h)
[2] = test system: Streptococcus agalactiae; assay: Induction of resistance by repeated passages, MIC after each step; format: cell-based
[3] = test system: Enterococcus faecalis CCM 4224; assay: MIC, standard microdilution method; conditions: CCM4224, 24 h
[4] = test system: Streptococcus agalactiae; assay: MIC, standard microdilution method; conditions: 24 h
[5] = Carboxyfluorescein leakage assay, LUV from erythrocyte lipids; format: biochemical, human; conditions: LPPO 0.8 mg/L, 60 μM phospholipid, 25°C
Experimental: After evaporation of the solvent in vaccuo at 40°C, the phospholipids were dissolved in chloroform, filtered through glass fiber filters (Whatman) and concentrated under a stream of nitrogen. The lipid samples were stored at -80°C and used for liposome preparation. Vesicles to be used in the carboxyfluorescein (CF) leakage assay were prepared by mixing the appropriate amount of lipids (1 mg/ml) with chloroform/methanol 2:1 (v/v). The solvent was subsequently evaporated under a nitrogen gas stream obtaining a thin film on the walls of a glass tube. […] The release of vesicle contents after adding LPPO solutions was evaluated by the increased fluorescence intensity of CF released into the milieu which we express as the percentage of leakage. […] Maximum release of CF fluorescence (F max) was induced by lysing the vesicles with 0.1% (v/v) Triton X-100. Fluorescence intensity was monitored in time (excitation at 480 nm, emission at 515 nm) at 25°C using FluoroMax-3 (Jobin Yvon, Horriba) spectrofluorometer. The following equation was used to calculate the percent of CF leakage: % CF leakage = [(F–F 0)/(F max−F 0)] × 100, where F is the actual fluorescence intensity and F 0 is the fluorescence intensity before addition of the permeabilizing agent. […]

[6] = read-out: MIC after induction step, step 1
[7] = read-out: MIC after induction step, step 2
[8] = read-out: MIC after induction step, step 3
[9] = read-out: MIC after induction step, step 4
[10] = read-out: MIC after induction step, step 5
[11] = read-out: MIC after induction step, step 6
[12] = read-out: MIC after induction step, step 7
[13] = read-out: MIC after induction step, step 8
[14] = read-out: MIC after induction step, step 9
[15] = read-out: MIC after induction step, step 10
[16] = read-out: MIC after induction step, step 11
[17] = read-out: MIC after induction step, step 12
[18] = read-out: MIC after induction step, step 13
[19] = read-out: MIC after induction step, step 14

Structure (SMILES): CCCCCCCCCCCCCCCCOP(=O)(CCN1C[C@@H](O)[C@H](O)C1)OC[C@H]1O[C@@H](n2ccc(=O)[nH]c2=O)[C@H](O)[C@@H]1O (stereo partly drawn) [DR5026]
- MIC [1]: 12.5 µg/mL (≈ 18.9 µM)
- MIC [2, 6]: 3.1 µg/mL (≈ 4.68 µM)
- MIC [2, 7]: 3.1 µg/mL (≈ 4.68 µM)
- MIC [2, 8]: 3.1 µg/mL (≈ 4.68 µM)
- MIC [2, 9]: 3.1 µg/mL (≈ 4.68 µM)
- MIC [2, 10]: 3.1 µg/mL (≈ 4.68 µM)
- MIC [2, 11]: 3.1 µg/mL (≈ 4.68 µM)
- MIC [2, 12]: 6.2 µg/mL (≈ 9.37 µM)
- MIC [2, 13]: 6.2 µg/mL (≈ 9.37 µM)
- MIC [2, 14]: 3.1 µg/mL (≈ 4.68 µM)
- MIC [2, 15]: 3.1 µg/mL (≈ 4.68 µM)
- MIC [2, 16]: 3.1 µg/mL (≈ 4.68 µM)
- MIC [2, 17]: 6.2 µg/mL (≈ 9.37 µM)
- MIC [2, 18]: 6.2 µg/mL (≈ 9.37 µM)
- MIC [2, 19]: 6.2 µg/mL (≈ 9.37 µM)
- MIC [3]: 3.12 µg/mL (≈ 4.72 µM)
- MIC [4]: 3.12 µg/mL (≈ 4.72 µM)
- CF release, % of the maximum (Triton X-100) [5]: 8%

Structure (SMILES): CCCCCCCCCCCCCCCCOCCCOP(=O)(CCN1C[C@@H](O)[C@H](O)C1)OC[C@H]1O[C@@H](n2ccc(=O)[nH]c2=O)[C@H](O)[C@@H]1O (stereo partly drawn) [DR5047]
- MIC [1]: 6.25 µg/mL (≈ 8.68 µM)
- MIC [2, 6]: 6.2 µg/mL (≈ 8.61 µM)
- MIC [2, 7]: 6.2 µg/mL (≈ 8.61 µM)
- MIC [2, 8]: 6.2 µg/mL (≈ 8.61 µM)
- MIC [2, 9]: 6.2 µg/mL (≈ 8.61 µM)
- MIC [2, 10]: 6.2 µg/mL (≈ 8.61 µM)
- MIC [2, 11]: 6.2 µg/mL (≈ 8.61 µM)
- MIC [2, 12]: 3.1 µg/mL (≈ 4.31 µM)
- MIC [2, 13]: 6.2 µg/mL (≈ 8.61 µM)
- MIC [2, 14]: 6.2 µg/mL (≈ 8.61 µM)
- MIC [2, 15]: 6.2 µg/mL (≈ 8.61 µM)
- MIC [2, 16]: 6.2 µg/mL (≈ 8.61 µM)
- MIC [2, 17]: 6.2 µg/mL (≈ 8.61 µM)
- MIC [2, 18]: 6.2 µg/mL (≈ 8.61 µM)
- MIC [2, 19]: 6.2 µg/mL (≈ 8.61 µM)
- MIC [3]: 6.25 µg/mL (≈ 8.68 µM)
- MIC [4]: 6.25 µg/mL (≈ 8.68 µM)
- CF release, % of the maximum (Triton X-100) [5]: 4%
